We go through 31 compounds from US8871767B2, “2-arylimidazo[1,2-B]pyridazine, 2-phenylimidazo[1,2-A]pyridine, and 2-phenylimidazo[1,2-A]pyrazine derivatives” (Hengrui (USA) Ltd., priority 2010, dated 2014).

The subject of the first test is Hedgehog pathway activation on 10T1/2/Smo#3 cells (C3H10T1/2 cells transfected with human Smoothened receptor). Kind of test: Hedgehog pathway activation on 10T1/2/Smo#3 cells measured by ALP activity. Type of test: cell-based. Particulars: Mus musculus, C3H 10T1/2, 10T1/2/Smo#3 cells, measured by ALP activity; read-out: ALP (IC50, inhibition of Hedgehog pathway activation). The procedure: Hedgehog conditioned media was obtained by transfecting 293H cells with the full length gene encoding human Sonic Hedgehog (hShh) inserted into the pCMV6 expression vector, which contains a neomycin selectable marker and expresses the protein of interest with a C-terminal FLAG affinity tag. After selection in G418 containing media, conditioned media from Hedgehog expressing clones were tested for the ability to activate the hedgehog-responsive GLi-luciferase reporter in the Shh Light II cell line obtained by license from John Hopkins University (Taipale J, et al. Effects of oncogenic mutations in Smoothened and Patched can be reversed by cyclopamine. Nature 406: 1005-1009, 2000).
C3H10T1/2 cells were transfected with a pCMV expression vector containing the full length gene sequence encoding the human Smoothened receptor. Pooled cells, designated 10T1/2/Smo#3, growing in G418 selection media responded to activation by 10-20% conditioned hShh media with an approximate 5-10 fold increase in alkaline phosphaste (ALP) activity over untransfected parent C3H10T1/2 cells as measured by the conversion of the free acid of 4-methylumbelliferyl phosphate to a fluorescent product.
A test compound library was screened against hShh and 500 nM SAG (a direct agonist of the Smoothened receptor) activated 10T1/2/Smo#3 cells and Shh Light II reporter cells for the ability to block Hedgehog pathway activation. Concurrently, cell viability was measured by utilizing Celltiter-Blue® (Promega, Madison Wis.) viability assay. Active compounds were defined as those that inhibited Hedgehog signaling by greater than 50% with no concurrent loss in cell viability.
Their inhibitory activity against Hedgehog pathway activation on 10T1/2/Smo#3 cells as measured by ALP activity and Shh Light II reporter cells as measured by luciferase activity is shown in Table 1 below. In Table 1, +++ stands for an IC50 value that is less than 0.3 μM, ++ between 0.3 and 3 μM, + between 3 and 30 μM.
Additional data for compounds of the invention is shown below in Table 2. Their inhibitory activities against Hedgehog pathway activation are shown as IC50 values in μM on 10T1/2/Smo#3 cells as measured by ALP activity, or on Shh Light II reporter cells as measured by luciferase activity (hShh activation).
Take `CC1(C(=O)Nc2cc(-c3cn4nc(-c5cccnc5C(F)(F)F)ccc4n3)ccc2F)CC1` [Example 674, N-(2-fluoro-5-(6-(2-(trifluoromethyl)pyridin-3-yl)imidazo[1,2-b]pyridazin-2-yl)phenyl)-1-methylcyclopropanecarboxamide]: the IC50 was determined as 140 nM.

Turning to `CC(C)(C)C(=O)Nc1cc(-c2cn3nc(-c4cc(F)ccc4F)ccc3n2)ccc1C(F)(F)F` [Example 224, N-(5-(6-(2,5-difluorophenyl)imidazo[1,2-b]pyridazin-2-yl)-2-(trifluoromethyl)phenyl)pivalamide], the IC50 amounted to 62 nM.

On to `CCOC(=O)Nc1cc(-c2cn3nc(-c4cccnc4C(F)(F)F)ccc3n2)ccc1F` [Example 682, ethyl 2-fluoro-5-(6-(2-(trifluoromethyl)pyridin-3-yl)imidazo[1,2-b]pyridazin-2-yl)phenylcarbamate], for which the IC50 is 1740 nM.

For the compound `CCOc1ccc2nc(-c3ccc(OC(F)(F)F)c(NC(=O)C(C)(C)C)c3)cn2n1` [Example 246, N-(5-(6-ethoxyimidazo[1,2-b]pyridazin-2-yl)-2-(trifluoromethoxy)phenyl)pivalamide], the IC50 was found to be 1320 nM.

As to `CC(C)(C)C(=O)Nc1cc(-c2cn3nc(-c4ccccc4F)ccc3n2)ccc1C1CC1` [Example 271, N-(2-cyclopropyl-5-(6-(2-fluorophenyl)imidazo[1,2-b]pyridazin-2-yl)phenyl)pivalamide], the IC50 is 246 nM.

As to `CC(C)(C)C(=O)Nc1cc(-c2cn3nc(Cl)ccc3n2)ccc1C1CC1` [Example 270, N-(5-(6-chloroimidazo[1,2-b]pyridazin-2-yl)-2-cyclopropylphenyl)pivalamide], the IC50 was found to be 9430 nM.

As for `C[C@@H]1CN(c2ccc3nc(-c4ccc(OC(F)(F)F)c(NC(=O)C(C)(C)C)c4)cn3n2)C[C@H](C)O1` [Example 463, N-(5-(6-((2R,6S)-2,6-dimethylmorpholino)imidazo[1,2-b]pyridazin-2-yl)-2-(trifluoromethoxy)phenyl)pivalamide], the IC50 stood at 1530 nM.

Turning to `CC(C)(C)C(=O)Nc1cc(-c2cn3nc(N4CCC(O)CC4)ccc3n2)ccc1OC(F)(F)F` [Example 269, N-(5-(6-(4-hydroxypiperidin-1-yl)imidazo[1,2-b]pyridazin-2-yl)-2-(trifluoromethoxy)phenyl)pivalamide], the IC50 turned out to be 1010 nM.

Take `CC(C)(C)C(=O)Nc1cc(-c2cn3nc(Cl)ccc3n2)ccc1OC(F)(F)F` [Example 245, N-(5-(6-chloroimidazo[1,2-b]pyridazin-2-yl)-2-(trifluoromethoxy)phenyl)pivalamide]: the half-inhibitory concentration (IC50) was determined as 2970 nM.

`CCCCOc1ccc2nc(-c3ccc(OC(F)(F)F)c(NC(=O)C(C)(C)C)c3)cn2n1` [Example 249, N-(5-(6-butoxyimidazo[1,2-b]pyridazin-2-yl)-2-(trifluoromethoxy)phenyl)pivalamide]: the IC50 was 889 nM.

For the compound `CCOc1ccc2nc(-c3ccc(C4CC4)c(NC(=O)C(C)(C)C)c3)cn2n1` [Example 272, N-(2-cyclopropyl-5-(6-ethoxyimidazo[1,2-b]pyridazin-2-yl)phenyl)pivalamide], the IC50 turned out to be 1260 nM.

As to `CC(C)(C)C(=O)Nc1cc(-c2cn3nc(N4CCOCC4)ccc3n2)ccc1OC(F)(F)F` [Example 267, N-(5-(6-morpholinoimidazo[1,2-b]pyridazin-2-yl)-2-(trifluoromethoxy)phenyl)pivalamide], the IC50 stood at 2080 nM.

On to `CC(=O)c1cccc(-c2ccc3nc(-c4ccc(C(F)(F)F)c(NC(=O)C(C)(C)C)c4)cn3n2)c1` [Example 254, N-(5-(6-(3-acetylphenyl)imidazo[1,2-b]pyridazin-2-yl)-2-(trifluoromethyl)phenyl)pivalamide], for which the IC50 was 360 nM.

`CCOC(=O)c1ccccc1-c1ccc2nc(-c3ccc(C(F)(F)F)c(NC(=O)C(C)(C)C)c3)cn2n1` [Example 257, ethyl 2-(2-(3-pivalamido-4-(trifluoromethyl)phenyl)imidazo[1,2-b]pyridazin-6-yl)benzoate]: the IC50 is 497 nM.

`CC(C)Oc1ccccc1-c1ccc2nc(-c3ccc(C(F)(F)F)c(NC(=O)C(C)(C)C)c3)cn2n1` [Example 251, N-(5-(6-(2-isopropoxyphenyl)imidazo[1,2-b]pyridazin-2-yl)-2-(trifluoromethyl)phenyl)pivalamide]: the IC50 amounted to 518 nM.

With `CC1CN(c2ccc3nc(-c4ccc(OC(F)(F)F)c(NC(=O)C(C)(C)C)c4)cn3n2)CC(C)O1` (stereo not shown) [Example 266, N-(5-(6-(2,6-dimethylmorpholino)imidazo[1,2-b]pyridazin-2-yl)-2-(trifluoromethoxy)phenyl)pivalamide], the IC50 worked out at 1530 nM.

As for `C[C@@H]1CN(c2ccc3nc(-c4ccc(C(F)(F)F)c(NC(=O)C(C)(C)C)c4)cn3n2)C[C@H](C)O1` [Example 250, N-(5-(6-(2,6-dimethylmorpholino)imidazo[1,2-b]pyridazin-2-yl)-2-(trifluoromethyl)phenyl)pivalamide], the IC50 was 259 nM.

On to `CC(C)(C)C(=O)Nc1cc(-c2cn3nc(N4CCN(S(C)(=O)=O)CC4)ccc3n2)ccc1OC(F)(F)F` [Example 268, N-(5-(6-(4-(methylsulfonyl)piperazin-1-yl)imidazo[1,2-b]pyridazin-2-yl)-2-(trifluoromethoxy)phenyl)pivalamide], for which the IC50 worked out at 1940 nM.

A further test concerns Hedgehog pathway activation (GLi-luciferase reporter) in Shh Light II reporter cells. Kind of test: Hedgehog pathway activation on Shh Light II reporter cells measured by luciferase activity. Type of test: cell-based. The conditions noted are these: Mus musculus, Shh Light II, hShh activation, read-out: Shh (IC50, inhibition of Hedgehog pathway activation). Summed up:
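Shh Light II reporter cells carrying a hedgehog-responsive GLi-luciferase reporter were stimulated either with 500 nM SAG, a direct Smoothened agonist, or with conditioned media containing human Sonic Hedgehog (hShh). Test compounds were evaluated for blocking this pathway activation, quantified by luciferase activity. Cell viability was monitored in parallel with the Celltiter-Blue® assay.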
Consider `CC1(C(=O)Nc2cc(-c3cn4nc(-c5cccnc5C(F)(F)F)ccc4n3)ccc2F)CC1` [Example 674, N-(2-fluoro-5-(6-(2-(trifluoromethyl)pyridin-3-yl)imidazo[1,2-b]pyridazin-2-yl)phenyl)-1-methylcyclopropanecarboxamide], for which the IC50 turned out to be 59 nM.

In the case of `CC(C)(C)C(=O)Nc1cc(-c2cn3nc(-c4cc(F)ccc4F)ccc3n2)ccc1C(F)(F)F` [Example 224, N-(5-(6-(2,5-difluorophenyl)imidazo[1,2-b]pyridazin-2-yl)-2-(trifluoromethyl)phenyl)pivalamide], the IC50 came to 82 nM.

For the compound `CCOC(=O)Nc1cc(-c2cn3nc(-c4cccnc4C(F)(F)F)ccc3n2)ccc1F` [Example 682, ethyl 2-fluoro-5-(6-(2-(trifluoromethyl)pyridin-3-yl)imidazo[1,2-b]pyridazin-2-yl)phenylcarbamate], the IC50 was determined as 571 nM.

As to `Cc1ccc(-c2cn3nc(-c4ccc(C(N)=O)cc4)ccc3n2)cc1NC(=O)C(C)(C)C` [compound 526], the IC50 was 783 nM.

Regarding `CNC(=O)c1ccccc1-c1ccc2nc(-c3ccc(C)c(NC(=O)C(C)(C)C)c3)cn2n1` [Example 452, N-methyl-2-(2-(4-methyl-3-pivalamidophenyl)imidazo[1,2-b]pyridazin-6-yl)benzamide], the IC50 was 385 nM.

On to `Cc1nc(-c2ccc(-c3ccc4nc(-c5ccc(C)c(NC(=O)C(C)(C)C)c5)cn4n3)cc2)no1` [compound 549], for which the IC50 came out at 204 nM.

In the case of `CC(C)c1ccccc1-c1ccc2nc(-c3ccc(C(F)(F)F)c(NC(=O)C(C)(C)C)c3)cn2n1` [Example 324, N-(5-(6-(2-isopropylphenyl)imidazo[1,2-b]pyridazin-2-yl)-2-(trifluoromethyl)phenyl)pivalamide], the IC50 was determined as 1460 nM.

For `COc1cc(-c2ccc3nc(-c4ccc(C)c(NC(=O)C(C)(C)C)c4)cn3n2)ncc1C(=O)O` [Example 461, 4-methoxy-6-(2-(4-methyl-3-pivalamidophenyl)imidazo[1,2-b]pyridazin-6-yl)nicotinic acid], the IC50 was 8390 nM.

Regarding `CC(C)(C)C(=O)Nc1cc(-c2cn3nc(NC4CCNCC4)ccc3n2)ccc1C(F)(F)F` [Example 330, N-(5-(6-(piperidin-4-ylamino)imidazo[1,2-b]pyridazin-2-yl)-2-(trifluoromethyl)phenyl)pivalamide], the IC50 is 676 nM.

For the compound `Cc1ccc(-c2cn3nc(-c4ccc(C(N)=O)nc4)ccc3n2)cc1NC(=O)C(C)(C)C` [compound 537], the IC50 stood at 734 nM.

As to `Cc1ccc(-c2cn3nc(-c4cccnc4O)ccc3n2)cc1NC(=O)C(C)(C)C` [Example 406, N-(5-(6-(2-hydroxypyridin-3-yl)imidazo[1,2-b]pyridazin-2-yl)-2-methylphenyl)pivalamide], the IC50 came to 2060 nM.

For the compound `Cc1ccc(-c2cn3nc(-c4ccc(C(=O)NOC5CCCCO5)cc4)ccc3n2)cc1NC(=O)C(C)(C)C` (stereo not shown) [compound 584], the IC50 was determined as 1900 nM.

Take `CCOC(=O)C=Cc1ccc2nc(-c3ccc(C)c(NC(=O)C(C)(C)C)c3)cn2n1` [compound 572]: the IC50 is 596 nM.

`Cc1ccc(-c2cn3nc(-c4cc(C=CC(=O)NO)ccc4Cl)ccc3n2)cc1NC(=O)C(C)(C)C` [compound 579]: the IC50 turned out to be 317 nM.

Turning to `CCOC(=O)C=Cc1cccc(S(=O)(=O)Nc2ccc3nc(-c4ccc(C)c(NC(=O)C(C)(C)C)c4)cn3n2)c1` [compound 603], the IC50 is 8180 nM.

On to `CC(C)(C)C(=O)Nc1cc(-c2cn3nc(N4CCC[C@@H]4CO)ccc3n2)ccc1C(F)(F)F` [Example 469, (R)-N-(5-(6-(2-(hydroxymethyl)pyrrolidin-1-yl)imidazo[1,2-b]pyridazin-2-yl)-2-(trifluoromethyl)phenyl)pivalamide], for which the IC50 amounted to 339 nM.
